We go through 18 compounds from PubChem BioAssay (NCI).

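In this assay, cells in 96-well plates receive the compound at five concentrations for 48 hours. Endpoints are linearly interpolated between the surrounding concentrations. GI50: concentration for 50% inhibition of growth. TGI denotes the concentration required for complete inhibition of growth.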 Bounds are passed on as bounds.

Some test systems named below: HL-60(TB) leukemia; A498 renal; ACHN renal; TK-10 renal; CCRF-CEM leukemia; HOP-92 NSCLC; SK-MEL-28 melanoma; M14 melanoma; SK-MEL-2 melanoma; NCI-H226 lung.
Common to all, as to assay: NCI anticancer screen, dose series, 48 h

As to `NC1=NS(=O)(=O)Nc2nc(-c3cccs3)[nH]c21`, the TGI with HL-60(TB) leukemia, in the assay on A498 renal, in the assay on ACHN renal, with TK-10 renal, with CCRF-CEM leukemia and in the assay on HOP-92 NSCLC was greater than 100 µM throughout. Also, the TGI in the assay on SK-MEL-28 melanoma, in the assay with M14 melanoma and with SK-MEL-2 melanoma was greater than 100 µM throughout.
As to `C=C1C(=O)OC2/C=C(\C)CC(O)/C=C(/CO)CC(OC(=O)/C(C)=C/C)C12` (centres undefined), the TGI in the assay with HL-60(TB) leukemia came out at 34.9 µM; in the assay on A498 renal, 58.4 µM; in the assay with CCRF-CEM leukemia it was 76 µM; with HOP-92 NSCLC, 111 µM; in the assay with SK-MEL-28 melanoma, 41.1 µM; in the assay with NCI-H226 lung, 91 µM. Besides, in the assay on SK-MEL-2 melanoma, the TGI turned out to be 344 µM.
For the compound `O=C(/N=C/c1c(O)c2ccccc2oc1=O)NC1CCCCC1`, the TGI in the assay on HL-60(TB) leukemia, in the assay on ACHN renal, in the assay with TK-10 renal, in the assay with HOP-92 NSCLC, in the assay with SK-MEL-28 melanoma and with NCI-H226 lung was greater than 100 µM each time. The TGI in the assay on M14 melanoma and with SK-MEL-2 melanoma was greater than 100 µM each time.
As for `CC(O)=NC(Cc1ccc2ccccc2c1)C(O)=NC(Cc1ccc(Cl)cc1)C(O)=NC(Cc1c[nH]c2ccccc12)C(O)=NC(CO)C(O)=NC(Cc1ccc(O)cc1)C(O)=NC(CCCN=C(N)N)C(O)=NC(CC(C)C)C(O)=NC(CCCN=C(N)N)C(=O)N1CCCC1C(O)=NC(C)C(=N)O` (centres undefined), the TGI with HL-60(TB) leukemia, in the assay with A498 renal, in the assay on ACHN renal, in the assay on TK-10 renal, in the assay on CCRF-CEM leukemia and with HOP-92 NSCLC was greater than 100 µM in each case. Further, the figures for the TGI with NCI-H226 lung, in the assay with M14 melanoma and in the assay on SK-MEL-2 melanoma were 80.7 µM, greater than 100 µM and 90.9 µM, respectively.
For `Cc1onc(-c2c(F)cccc2Cl)c1C(=O)N[C@@H]1C(=O)N2[C@@H]1SC(C)(C)[C@@H]2C(=O)O`, the TGI in the assay on A498 renal, in the assay with ACHN renal, in the assay with TK-10 renal, in the assay on HOP-92 NSCLC, with SK-MEL-28 melanoma and with NCI-H226 lung was greater than 100 µM each time. Also, the TGI in the assay with M14 melanoma and in the assay on SK-MEL-2 melanoma was greater than 100 µM in each case.
As to `CC(C)Cc1cccc(C(C)C)c1NC(=O)CCC(=O)N/N=C1\C(=N/NC(=O)CCC(=O)Nc2c(C(C)C)cccc2C(C)C)C(c2ccc3c(c2)OCO3)Oc2ccccc21` (centres undefined), the TGI in the assay with HL-60(TB) leukemia, with A498 renal, with ACHN renal, in the assay with TK-10 renal, with CCRF-CEM leukemia and in the assay on HOP-92 NSCLC was greater than 100 µM each time. The TGI in the assay with SK-MEL-28 melanoma, in the assay on NCI-H226 lung, with M14 melanoma and in the assay with SK-MEL-2 melanoma was greater than 100 µM in each case.
On to `FC(F)(F)C1=NC(=NNc2nnc(-c3ccccc3)c(-c3ccccc3)n2)N=C(C(F)(F)F)C1`, for which the TGI with HL-60(TB) leukemia is 37.1 µM; in the assay with A498 renal it was greater than 100 µM; in the assay on CCRF-CEM leukemia, greater than 100 µM; in the assay on HOP-92 NSCLC it was greater than 87.3 µM; in the assay with SK-MEL-28 melanoma it was greater than 100 µM; in the assay on NCI-H226 lung, greater than 100 µM. In the assay with SK-MEL-2 melanoma, this compound showed a TGI greater than 100 µM.
As for `CS(=O)(=O)OCc1c(O)c2c(c(O)c1COS(C)(=O)=O)C(=O)C=CC2=O`, the TGI in the assay on HL-60(TB) leukemia, in the assay with A498 renal, with ACHN renal, in the assay with TK-10 renal, in the assay on CCRF-CEM leukemia and in the assay with HOP-92 NSCLC was greater than 100 µM in each case. The TGI in the assay with SK-MEL-28 melanoma, in the assay with NCI-H226 lung, in the assay on M14 melanoma and in the assay with SK-MEL-2 melanoma was greater than 100 µM each time.
In the case of `O=c1cc(-c2nc3ccccc3[nH]2)[nH]c2nc(-c3nc4ccccc4[nH]3)cc(-c3ccc(Cl)cc3)c12`, the TGI in the assay with HL-60(TB) leukemia amounted to 66.3 µM; in the assay on ACHN renal, 41.6 µM; in the assay with TK-10 renal, 49 µM; in the assay on CCRF-CEM leukemia it was 91.6 µM; in the assay on HOP-92 NSCLC, 55 µM; in the assay on NCI-H226 lung, 49.2 µM. Besides, the TGI with M14 melanoma was 62.5 µM; in the assay on SK-MEL-2 melanoma, 30.5 µM.
`CN(C)CCC(C(=O)C(C)(C)C)c1ccccn1` (centres undefined): the TGI in the assay on HL-60(TB) leukemia, in the assay on A498 renal, in the assay on ACHN renal, with TK-10 renal, with CCRF-CEM leukemia and in the assay on HOP-92 NSCLC was greater than 100 µM throughout. Besides, the TGI in the assay with SK-MEL-28 melanoma, in the assay with NCI-H226 lung, in the assay with M14 melanoma and in the assay with SK-MEL-2 melanoma was greater than 100 µM throughout.
For the compound `C[C@H](O)C(=O)SC[C@H](NC(=O)CC[C@@H](N)C(=O)O)C(=O)NCC(=O)O`, the TGI in the assay with ACHN renal, in the assay on TK-10 renal, with CCRF-CEM leukemia, in the assay on HOP-92 NSCLC, in the assay with SK-MEL-28 melanoma and with NCI-H226 lung was greater than 100 µM throughout. In addition, the TGI in the assay on M14 melanoma and with SK-MEL-2 melanoma was greater than 100 µM each time.
For the compound `COc1c2ccoc2c(S(=O)(=O)Nc2ccc(Cl)cc2)c2oc(C)cc(=O)c12`, the TGI in the assay on HL-60(TB) leukemia was greater than 31.6 µM; in the assay with A498 renal, greater than 100 µM; in the assay with CCRF-CEM leukemia, greater than 100 µM; in the assay with HOP-92 NSCLC, greater than 93.6 µM; in the assay on SK-MEL-28 melanoma, greater than 100 µM; in the assay with NCI-H226 lung, greater than 100 µM. Moreover, the TGI in the assay with SK-MEL-2 melanoma was greater than 100 µM.
Regarding `COc1ccc(-n2cc(-c3ccc(OC)c(OC)c3)nc2SCc2ccccc2)cc1Cl`, the GI50 with HL-60(TB) leukemia is 12.9 µM; in the assay with A498 renal, 22.3 µM; in the assay with ACHN renal it was 38.9 µM; in the assay with TK-10 renal it was 29.5 µM; in the assay on CCRF-CEM leukemia, 0.857 µM; in the assay with HOP-92 NSCLC, 6.13 µM. For the same compound, the GI50 in the assay on SK-MEL-28 melanoma is 27.4 µM; in the assay on NCI-H226 lung, 40.4 µM; in the assay with M14 melanoma, 26 µM; in the assay on SK-MEL-2 melanoma, 16.3 µM. The TGI in the assay with HL-60(TB) leukemia was 37.7 µM; in the assay on A498 renal it was greater than 100 µM; with ACHN renal, greater than 100 µM; with TK-10 renal, greater than 100 µM; with CCRF-CEM leukemia it was 31.2 µM; with HOP-92 NSCLC, 38.6 µM. Moreover, the TGI in the assay on SK-MEL-28 melanoma was greater than 100 µM; in the assay on NCI-H226 lung it was greater than 100 µM; in the assay with M14 melanoma, greater than 100 µM; with SK-MEL-2 melanoma, 56.3 µM.
For `ClCC1(CCl)COC1`, the TGI in the assay with HL-60(TB) leukemia, in the assay on A498 renal, in the assay on ACHN renal, in the assay with TK-10 renal, with CCRF-CEM leukemia and with HOP-92 NSCLC was greater than 100 µM in each case. Further, the TGI in the assay on SK-MEL-28 melanoma, in the assay with NCI-H226 lung and in the assay on M14 melanoma was greater than 100 µM each time.
As to `Oc1ccc2ccccc2c1Cc1c(O)ccc2ccccc12`, the TGI in the assay with HL-60(TB) leukemia stood at 38.7 µM; with A498 renal it was 39.4 µM; in the assay on ACHN renal, 33.8 µM; with TK-10 renal, 48.9 µM; with CCRF-CEM leukemia, 45.8 µM; in the assay on SK-MEL-28 melanoma, 40.7 µM. Besides, the TGI was found to be 45.5 µM with NCI-H226 lung, 34.9 µM with M14 melanoma and 41.7 µM in the assay with SK-MEL-2 melanoma.
Turning to `CCCC(=O)OCC(O)CO` (centres undefined), the TGI in the assay with HL-60(TB) leukemia, in the assay with ACHN renal, in the assay on TK-10 renal, with CCRF-CEM leukemia, in the assay with HOP-92 NSCLC and in the assay with SK-MEL-28 melanoma was greater than 5000 µM throughout. Moreover, the TGI with NCI-H226 lung, in the assay with M14 melanoma and in the assay with SK-MEL-2 melanoma was greater than 5000 µM each time.
In the case of `C[C@]12CC[C@H](O)CC1=CC[C@@H]1[C@@H]2CC[C@]2(C)C(=O)CC[C@@H]12`, the TGI in the assay on ACHN renal, with TK-10 renal, with SK-MEL-28 melanoma, in the assay on NCI-H226 lung, in the assay with M14 melanoma and in the assay on SK-MEL-2 melanoma was greater than 100 µM in each case.
For the compound `CO[C@]12C[C@H](CNC(=O)c3cc(Br)c(Br)[nH]3)O[C@H]1NC(=O)N2`, the TGI in the assay with HL-60(TB) leukemia, in the assay with A498 renal, with ACHN renal, in the assay with TK-10 renal, with CCRF-CEM leukemia and in the assay with HOP-92 NSCLC was greater than 100 µM in each case. Also, the TGI with SK-MEL-28 melanoma, in the assay with NCI-H226 lung, in the assay on M14 melanoma and with SK-MEL-2 melanoma was greater than 100 µM in each case.
